Measured values from the NIST ThermoML archive (doi:10.1021/je060501l).
Numbers after ± are expanded uncertainties.

Details: Liquid

vapor or sublimation pressure (273.15 K) [kPa]	vapor or sublimation pressure (283.15 K) [kPa]	vapor or sublimation pressure (293.15 K) [kPa]	vapor or sublimation pressure (303.15 K) [kPa]	vapor or sublimation pressure (313.15 K) [kPa]	Structure (SMILES)
265.8 ± 8.6	372.8 ± 12	513.3 ± 16	689.9 ± 22	909.4 ± 28	CC(F)F [1,1-difluoroethane]
472.5 ± 15	633.9 ± 20	832.94 ± 26	1077 ± 34	1370 ± 43	CCC [propane]
